Read-outs that look alike come from different tables or passages of the source.
What was measured:
HSA = HSA (Homo sapiens, UniProt P02768); conditions: literature values; cited from earlier work
[1] = Water exchange rate and molecular rotational correlation time by 17O-NMR at 9.4 T; format: physicochemical; conditions: 298 K
Excerpt: According to the disclosure of Chem. Rev., 1999, 99, 2293-2352, the relaxivity of the metal complex is affected by the hydration number q and the correlation time τc. The correlation time τc depends on three parameters: (1) molecular rotational correlation time (τR); (2) Electron longitudinal and transverse spin relaxation time (T1e, T2e); and (3) Water residence lifetime (τm) or Water exchange rate (kex), τm^−1=kex. Since Bz-CB-TTDA and CB-TTDA have the same hydration number, comparison between Bz-CB-TTDA and CB-TTDA in relaxivity can be determined by the aforesaid parameters, i.e., the higher the parameters, the higher will be the relaxivity.
Electron longitudinal and transverse spin relaxation time (T1e, T2e) of each test sample of the metal complexes was measured by using ^17O-NMR in a magnetic field of 9.4 T. The water exchange rate at 298 K (Kex^298) and the molecular rotational correlation time at 298 K (τR^298) of each test sample were determined by using three plots of “T1 versus temperature”, “T2 versus temperature” and “chemical shift versus temperature”.

[2] = Kinetic stability in PBS containing Zn2+; format: physicochemical; set-up: unit not given here; conditions: 2.5 mM complex, 2.5 mM ZnCl2, PBS pH 7.4, 37±0.1° C., three days, NMR 20 MHz
Protocol: Kinetic stability is evaluated by testing the stability of the metal complex in an environment containing a poisonous metal ion Zn^2+. The stability is defined as R1^p (t)/R1p (0), in which R1^P (t)=1/T1 (t), T1 is the relaxivity. The higher the R1^P (t)/R1p (0), the higher will be the stability.
2.5 mM of each of [Gd(Bz-CB-TTDA)]^2−−, [Gd(CB-TTDA)]^2− and [Gd(DTPA)]^2− was placed in a phosphate buffer saline (PBS, pH=7.4), followed by adding 2.5 mM of ZnCl2 to obtain a sample. The sample was subjected to reaction at 37±0.1° C. for three days (t=3), after which the relaxivity T1(t) of the sample was determined by using NMR (20 MHz).

[3] = cited from earlier work

Sequence of HSA (P02768 25-609): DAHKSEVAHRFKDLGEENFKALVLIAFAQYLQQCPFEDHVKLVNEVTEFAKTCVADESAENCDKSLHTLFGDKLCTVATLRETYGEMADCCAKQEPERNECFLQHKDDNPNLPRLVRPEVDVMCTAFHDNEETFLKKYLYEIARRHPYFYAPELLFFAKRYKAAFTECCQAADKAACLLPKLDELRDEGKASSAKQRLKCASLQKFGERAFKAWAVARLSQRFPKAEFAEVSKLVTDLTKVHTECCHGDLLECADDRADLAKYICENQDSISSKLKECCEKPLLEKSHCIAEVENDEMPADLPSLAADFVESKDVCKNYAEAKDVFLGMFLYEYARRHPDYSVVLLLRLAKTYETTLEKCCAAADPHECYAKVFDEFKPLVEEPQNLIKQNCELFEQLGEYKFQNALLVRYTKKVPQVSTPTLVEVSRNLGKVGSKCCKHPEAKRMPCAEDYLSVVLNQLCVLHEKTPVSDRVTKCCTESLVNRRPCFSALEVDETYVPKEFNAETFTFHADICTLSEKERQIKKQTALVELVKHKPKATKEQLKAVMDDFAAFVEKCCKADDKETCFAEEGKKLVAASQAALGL

Row | τR^298 molecular rotational correlation time [1] | R1^p (t)/R1^p (0) [2] | Structure (SMILES) | γ1^b bound relaxivity (HSA) | kex^298 water exchange rate [1] | γ1 relaxivity ([3]; pH 7.6 ± 0.1, Am. J. Roentgenol., 1984, 142, 619-624) | γ1 relaxivity ([3]; pH 7.5 ± 0.1, Inorg. Chem., 2005, 44, 382)
1 |  |  | O=C(O)CN(CCN(CC(=O)O)CC(=O)O)CCN(CC(=O)O)C(COCc1ccccc1)C(=O)O (stereo not drawn) [[Gd(BOPTA)]^2−] | 33.0^a mM^−1s^−1 |  |  | 
2 | 103 ps | 49.79 | O=C([O-])CN(CCN(CC(=O)[O-])CC(=O)[O-])CCN(CC(=O)[O-])CC(=O)[O-].[Gd+3] [[Gd(DTPA)]^2−] |  | 4.1 10^6 s^−1 | 3.89 ± 0.03^a mM^−1s^−1 | 
3 |  |  | CCOc1ccc(C[C@@H](C(=O)O)N(CCN(CCN(CC(=O)O)CC(=O)O)CC(=O)O)CC(=O)O)cc1 [[Gd(S)-EOB-DTPA]^2−] | 44.1^a mM^−1s^−1 |  |  | 
4 | 104 ± 12.0 ps |  | O=C([O-])CN(CCCN(CC(=O)[O-])CC(=O)[O-])CCN(CC(=O)[O-])CC(=O)[O-].[Gd+3] [[Gd(TTDA)]^2−] |  | 146 ± 17.0 10^6 s^−1 |  | 3.85 ± 0.03^a mM^−1s^−1

From patent US8354512B2, “Ligand and metal complex” (National Chiao Tung University, priority 2009, dated 2013)
